Data as given in ChEMBL document CHEMBL4673333, “Bioactive Limonoids and Triterpenoids from the Fruits of Melia azedarach” (J Nat Prod, 2020).
Calls of active or inactive are those of the source. No cut-off for these calls is given here.

Key:
Format in all cases: functional, cell-based
U-251 = test: Cytotoxicity against human U-251 cells assessed as reduction in cell viability by CCK8 assay
A549 = test: Cytotoxicity against human A549 cells assessed as reduction in cell viability by CCK8 assay
HT-29 = test: Cytotoxicity against human HT-29 cells assessed as reduction in cell viability by CCK8 assay
Bel-7402 = test: Cytotoxicity against human Bel-7402 cells assessed as reduction in cell viability by CCK8 assay
HCT-116 = test: Cytotoxicity against human HCT-116 cells assessed as reduction in cell viability by CCK8 assay

Structure (SMILES)	Activity (U-251)	Activity (A549)	Activity (HT-29)	Activity (Bel-7402)	Activity (HCT-116)	IC50 (HCT-116) [µM]
C/C=C(\C)C(=O)O[C@@H]1[C@@H]2OC[C@]3(C)[C@H](OC(C)=O)C[C@H](OC(C)=O)[C@@](C)([C@@H]23)[C@@H](CC(=O)OC)[C@]1(C)C1=C(C)[C@H](c2ccoc2)C[C@H]1OC	inactive	inactive	inactive	inactive	inactive	
COC(=O)C[C@H]1[C@]2(C)C3=C(C)[C@H](c4ccoc4)C[C@H]3O[C@@H]2[C@@H]2OC[C@]3(C)[C@H](OC(=O)/C=C/c4ccccc4)C[C@H](OC(=O)c4ccccc4)[C@@]1(C)[C@@H]23	inactive	inactive	inactive	inactive	inactive	
CC(C)=CCC[C@@H](C(=O)O)[C@@H]1[C@@H](O)C[C@]2(C)C3=CC[C@H]4C(C)(C)[C@@H](O)CC[C@]4(C)[C@H]3C[C@@H](O)[C@@]12C	inactive	inactive	inactive	inactive	inactive	
COC(=O)C[C@H]1[C@](C)(C2=C(C)[C@H](c3ccoc3)C[C@H]2OC)[C@H](OC(=O)c2ccccc2)[C@@H]2OC[C@]3(C)[C@H](OC(C)=O)C[C@H](OC(C)=O)[C@@]1(C)[C@@H]23	inactive	inactive	inactive	inactive	inactive	
C=C(C)C(=O)O[C@@H]1[C@@H]2OC[C@]3(C)[C@H](OC(C)=O)C[C@H](OC(C)=O)[C@@](C)([C@@H]23)[C@@H](CC(=O)OC)[C@]1(C)C1=C(C)[C@H](c2ccoc2)C[C@@H]1OC	inactive	inactive	inactive	inactive	inactive	
COC(=O)C[C@H]1[C@](C)(C2=C(C)[C@H](c3ccoc3)C[C@@H]2OC)[C@H](OC(=O)c2ccccc2)[C@@H]2OC[C@]3(C)[C@H](OC(C)=O)C[C@H](OC(C)=O)[C@@]1(C)[C@@H]23	inactive	inactive	inactive	inactive	inactive	
CC(=O)O[C@H]1[C@@H](OC(=O)c2ccccc2)[C@@]2(C)C3=CC[C@@H](c4ccoc4)[C@]3(C)[C@@H](OC(C)=O)C[C@@H]2[C@@]2(C)[C@@H](O)C[C@@H](OC(C)=O)[C@](C)(C=O)[C@H]12	inactive	inactive	inactive	inactive	inactive	
CO[C@H]1O[C@@H]([C@H](O)C(C)(C)O)C[C@H]1[C@@H]1CC[C@]2(C)C3=CC[C@H]4C(C)(C)[C@@H](O)CC[C@]4(C)[C@H]3CC[C@@]12C	inactive	inactive	inactive	inactive	inactive	
CC(C)=CCC[C@H]1C(=O)O[C@H]2C[C@]3(C)C4=CC(=O)[C@H]5C(C)(C)[C@@H](O)CC[C@]5(C)[C@H]4CC[C@@]3(C)[C@@H]21	inactive	inactive	inactive	inactive	inactive	
CC(=O)O[C@H](C(=O)C=C(C)C)[C@H](C)[C@@H]1CC[C@]2(C)C3=CC[C@H]4C(C)(C)C(=O)CC[C@]4(C)[C@H]3C[C@@H](O)[C@@]12C	inactive	inactive	inactive	inactive		5.9
C/C=C(\C)C(=O)O[C@H]1C[C@@H](O)[C@@](C)(C=O)[C@@H]2[C@@H](OC(C)=O)[C@H]3O[C@@H]4C[C@@H](c5ccoc5)C(C)=C4[C@@]3(C)[C@H](CC(=O)OC)[C@@]12C	inactive	inactive	inactive	inactive	inactive	
COC(=O)C[C@H]1[C@]2(C)C3=C(C)[C@H](c4ccoc4)C[C@H]3O[C@@H]2[C@@H]2OC[C@]3(C)[C@H](OC(=O)c4ccccc4)C[C@H](OC(=O)/C=C/c4ccccc4)[C@@]1(C)[C@@H]23	inactive	inactive	inactive	inactive	inactive	
C/C=C(\C)C(=O)O[C@@H]1[C@@H]2OC[C@]3(C)[C@H](OC(C)=O)C[C@H](OC(C)=O)[C@@](C)([C@@H]23)[C@@H](CC(=O)OC)[C@]1(C)C1=C(C)[C@H](c2ccoc2)C[C@@H]1OC	inactive	inactive	inactive	inactive	inactive	
COC(=O)C[C@H]1[C@](C)(C2=C(C)[C@H](c3ccoc3)C[C@@H]2OC(C)=O)[C@H](OC(=O)c2ccccc2)[C@@H]2OC[C@]3(C)[C@H](OC(C)=O)C[C@H](OC(C)=O)[C@@]1(C)[C@@H]23	inactive	inactive	inactive	inactive	inactive	
COC(=O)C[C@H]1[C@]2(C)C3=C(C)[C@H](c4ccoc4)C[C@H]3O[C@@H]2[C@@H]2OC[C@]3(C)[C@H](OC(=O)c4ccccc4)C[C@H](OC(=O)c4ccccc4)[C@@]1(C)[C@@H]23	inactive	inactive	inactive	inactive		0.3
CC(=O)O[C@H]1C[C@@H](OC(C)=O)[C@@]2(C)CO[C@H]3[C@@H](OC(=O)c4ccccc4)[C@@]4(C)C5=C(C)[C@H](c6ccoc6)C[C@@H]5O[C@@H](O)C[C@@H]4[C@]1(C)[C@@H]32	inactive	inactive	inactive	inactive	inactive	
CO[C@@H]1O[C@@H]([C@H](O)C(C)(C)O)C[C@H]1[C@@H]1CC[C@]2(C)C3=CC[C@H]4C(C)(C)[C@@H](O)CC[C@]4(C)[C@H]3CC[C@@]12C	inactive	inactive	inactive	inactive	inactive	
C/C=C(\C)C(=O)O[C@@H]1C[C@H](OC(=O)/C=C/c2ccccc2)[C@@]2(C)[C@H]3[C@@H](OC[C@]13C)[C@H]1O[C@@H]3C[C@@H](c4ccoc4)C(C)=C3[C@@]1(C)[C@@H]2CC(=O)OC	inactive	inactive	inactive	inactive	inactive	
COC(=O)C[C@H]1[C@]2(C)C3=C(C)[C@H](c4ccoc4)C[C@H]3O[C@@H]2[C@H](OC(C)=O)[C@H]2[C@](C)(C=O)[C@H](O)C[C@H](OC(=O)c3ccccc3)[C@@]21C	inactive	inactive	inactive	inactive	inactive	
C/C=C(\C)C(=O)O[C@@H]1[C@@H]2OC[C@]3(C)[C@H](OC(C)=O)C[C@H](OC(C)=O)[C@@](C)([C@@H]23)[C@H]2C[C@H](O)O[C@H]3C[C@@H](c4ccoc4)C(C)=C3[C@]12C	inactive	inactive	inactive	inactive	inactive	
C/C=C(\C)C(=O)O[C@H]1C[C@@H](OC(=O)c2ccccc2)[C@@]2(C)CO[C@H]3[C@H]4O[C@@H]5C[C@@H](c6ccoc6)C(C)=C5[C@@]4(C)[C@H](CC(=O)OC)[C@]1(C)[C@@H]32	inactive	inactive	inactive	inactive	inactive	
